Patent US5672715A, “Herbicidal substituted 3-aryl-pyrazoles” (Monsanto Company, priority 1995, dated 1997)
“And” between values parts separate entries of the source, which are not always exact repeats. Equal entries are not always repeated.

Experiments:
Type in all cases: in vivo
[1] = system: Bedstraw Catchweed; test: pre-emergence herbicide test; settings: Galium aparine, pre-emergence, 0.25 lb/A; read-out: % plant inhibition
Protocol: (§1) Topsoil was placed in an aluminum pan and compacted to a depth of 1.3 to 1.6 cm from the top of the pan. On the top of the soil was placed a predetermined number of seeds of each of several monocotyledonous and dicotyledonous annual plant species and/or vegetative propagules of various perennial plant species. The pan was then level filled with a cover layer of topsoil to which was added a known amount of active ingredient either prior to or after application of the cover layer. The active ingredient was dissolved or suspended in an organic solvent, e.g., acetone, or water as carrier for application to the cover layer. The pans were moved to a greenhouse bench where they were thereafter watered from below as needed to give adequate moisture for germination and growth. In some cases, an initial overhead irrigation of 1/4 inch of water was applied immediately after treatment.
(§2) Approximately 14 days after seeding and treating, the pans were observed and the results (% inhibition) were recorded.
(§3) The tables below summarize the results of the pre-emergence herbicidal activity tests of compounds of this invention tested with warm season plants (Tables 2a-2d) and cool season plants (Tables 3a and 3b). The herbicidal rating shown in these tables is the percent inhibition of each plant species. The plant species usually regarded as weeds are identified in the tables by single letter headings and crop species identified by two letter headings both headings being above the columns in accordance with the following legend: […]

[2] = system: Birdseye Speedwell; test: pre-emergence herbicide test; settings: pre-emergence, 0.25 lb/A; read-out: % plant inhibition
Protocol: as §1, §2, §3

[3] = system: Blackgrass; test: pre-emergence herbicide test; settings: Alopecurus myosuroides, pre-emergence, 0.25 lb/A; read-out: % plant inhibition
Protocol: as §1, §2, §3

[4] = system: Common Chickweed; test: pre-emergence herbicide test; settings: pre-emergence, 0.25 lb/A; read-out: % plant inhibition
Protocol: as §1, §2, §3

[5] = system: Downy Brome; test: pre-emergence herbicide test; settings: Bromus tectorum, pre-emergence, 0.25 lb/A; read-out: % plant inhibition
Protocol: as §1, §2, §3

[6] = system: Green Foxtail; test: pre-emergence herbicide test; settings: Setaria viridis, pre-emergence; 0.25 lb/A; read-out: % plant inhibition
Protocol: as §1, §2, §3

[7] = system: Rape; test: pre-emergence herbicide test; settings: pre-emergence, 0.25 lb/A; read-out: % plant inhibition
Protocol: as §1, §2, §3

[8] = system: Soybean; test: pre-emergence herbicide test; settings: 0.25 lb/A
Protocol: as §1, §2, §3

[9] = system: Velvetleaf; test: pre-emergence herbicide test; settings: Abutilon theophrasti, pre-emergence, 0.25 lb/A; read-out: % plant inhibition
Protocol: as §1, §2, §3

[10] = system: Wheat; test: pre-emergence herbicide test; settings: Triticum aestivum, pre-emergence, 0.25 lb/A; read-out: % plant inhibition
Protocol: as §1, §2, §3

[11] = system: Wild Oats; test: pre-emergence herbicide test; settings: Avena fatua, pre-emergence, 0.25 lb/A; read-out: % plant inhibition
Protocol: as §1, §2, §3

[12] = system: Barnyardgrass; test: post-emergence herbicide test; settings: Echinochloa crus-galli, post-emergence, 0.25 lb/A; read-out: % plant inhibition
Description: (§4) Topsoil was placed in aluminum pans having holes in the bottom and compacted to a depth of 1.3 to 1.6 cm from the top of the pan. A predetermined number of seeds of each of several dicotyledonous and monocotyledonous annual plant species and/or vegetative propagules for the perennial plant species were placed on the soil and pressed into the soil surface. The seeds and/or vegetative propagules were covered with soil and leveled. The pans were then placed on a bench in the greenhouse and watered either from overheard irrigation or by subirrigation as needed. After the plants reach the desired age (two to three weeks), each pan, is removed individually to a spraying chamber and sprayed by means of an atomizer, operating at a spray pressure of 170.3 kPa […] at the application rates noted. In the spray solution was an amount of an emulsifying agent mixture to give a spray solution or suspension which contains about 0.4% by volume of the emulsifier. The spray solution or suspension contained a sufficient amount of the candidate chemical in order to give application rates of the active ingredient corresponding to those shown in Tables 4 and 5, while applying a total amount of solution or suspension equivalent to 1870 L/Ha (200 gallons/acre). […] The post-emergent herbicidal activity shown in these tables is the percent inhibition of each plant species. Testing with warm season and cool season plants is shown in tables 4a-4d and […], respectively.

[13] = system: Bedstraw Catchweed; test: post-emergence herbicide test; settings: Galium aparine, post-emergence, 0.25 lb/A; read-out: % plant inhibition
Description: as §4

[14] = system: Birdseye Speedwell; test: post-emergence herbicide test; settings: post-emergence, 0.25 lb/A; read-out: % plant inhibition
Description: as §4

[15] = system: Blackgrass; test: post-emergence herbicide test; settings: Alopecurus myosuroides, post-emergence, 0.25 lb/A; read-out: % plant inhibition
Description: as §4

[16] = system: Cocklebur; test: post-emergence herbicide test; settings: Xanthium strumarium, post-emergence, 0.25 lb/A; read-out: % plant inhibition
Description: as §4

[17] = system: Common Chickweed; test: post-emergence herbicide test; settings: post-emergence, 0.25 lb/A; read-out: % plant inhibition
Description: as §4

[18] = system: Corn; test: post-emergence herbicide test; settings: Zea mays, post-emergence, 0.25 lb/A; read-out: % plant inhibition
Description: as §4

[19] = system: Downy Brome; test: post-emergence herbicide test; settings: Bromus tectorum, post-emergence, 0.25 lb/A; read-out: % plant inhibition
Description: as §4

[20] = system: Giant Foxtail; test: post-emergence herbicide test; settings: Setaria faberi, post-emergence, 0.25 lb/A; read-out: % plant inhibition
Description: as §4

[21] = system: Green Foxtail; test: post-emergence herbicide test; settings: Setaria viridis, post-emergence, 0.25 lb/A; read-out: % plant inhibition
Description: as §4

[22] = system: Morning Glory; test: post-emergence herbicide test; settings: Ipomoea, post-emergence, 0.25 lb/A; read-out: % plant inhibition
Description: as §4

[23] = system: Rape; test: post-emergence herbicide test; settings: post-emergence, 0.25 lb/A; read-out: % plant inhibition
Description: as §4

[24] = system: Seedling Johnsongrass; test: post-emergence herbicide test; settings: Sorghum halepense, post-emergence, 0.25 lb/A; read-out: % plant inhibition
Description: as §4

[25] = system: Soybean; test: post-emergence herbicide test; settings: Glycine max, post-emergence, 0.25 lb/A; read-out: % plant inhibition
Description: as §4

[26] = system: Velvetleaf; test: post-emergence herbicide test; settings: Abutilon theophrasti, post-emergence, 0.25 lb/A; read-out: % plant inhibition
Description: as §4

[27] = system: Wheat; test: post-emergence herbicide test; settings: Triticum aestivum, post-emergence, 0.25 lb/A; read-out: % plant inhibition
Description: as §4

[28] = system: Wild Oats; test: post-emergence herbicide test; settings: Avena fatua, post-emergence, 0.25 lb/A; read-out: % plant inhibition
Description: as §4

[29] = system: Corn; test: pre-emergence herbicide test; settings: 0.25 lb/A
Protocol: as §1, §2, §3

| SMILES | inhibition at 280.212 g/ha [1] | inhibition at 280.212 g/ha [2] | inhibition at 280.212 g/ha [3] | inhibition at 280.212 g/ha [4] | inhibition at 280.212 g/ha [5] | inhibition at 280.212 g/ha [6] | inhibition at 280.212 g/ha [7] | inhibition at 280.212 g/ha [10] | inhibition at 280.212 g/ha [11] | inhibition at 280.212 g/ha [12] | inhibition at 280.212 g/ha [13] | inhibition at 280.212 g/ha [14] | inhibition at 280.212 g/ha [15] | inhibition at 280.212 g/ha [16] | inhibition at 280.212 g/ha [17] | inhibition at 280.212 g/ha [18] | inhibition at 280.212 g/ha [19] | inhibition at 280.212 g/ha [20] | inhibition at 280.212 g/ha [21] | inhibition at 280.212 g/ha [22] | also measured |
| --- | --- | --- | --- | --- | --- | --- | --- | --- | --- | --- | --- | --- | --- | --- | --- | --- | --- | --- | --- | --- | --- |
| Cc1c(-c2cc(CO)c(Cl)cc2F)nn(C)c1C(F)(F)F [Compound 9, 2-Chloro-5-[1,4-dimethyl-5-(trifluoromethyl)-1H-pyrazol-3-yl]-4-fluorobenzenemethanol] | 20% | 90% | 50% | 90% | 5% | 100% | 30% | 0% | 5% | 25% | 50% | 35% | 20% | 35% | 15% | 10% | 25% | 10% | 20% | 45% | % plant inhibition [8]: 0%; inhibition at 280.212 g/ha [9]: 98%; inhibition at 280.212 g/ha [23]: 20%; inhibition at 280.212 g/ha [24]: 20%; inhibition at 280.212 g/ha [25]: 60%; inhibition at 280.212 g/ha [26]: 95%; inhibition at 280.212 g/ha [27]: 13%; inhibition at 280.212 g/ha [28]: 25% |
| Cc1c(-c2cc(CBr)c(Cl)cc2F)nn(C)c1C(F)(F)F [Compound 10, 3-[5-(Bromomethyl)-4-chloro-2-fluorophenyl]-1,4-dimethyl-5-(trifluoromethyl)-1H-pyrazole] | 30% | 50% | 20% | 5% | 25% | 98% | 50% | 0% | 5% | 5% | 25% | 90% | 20% | 55% | 15% | 3% | 25% | 15% | 50% | 35% | inhibition at 280.212 g/ha [23]: 35%; inhibition at 280.212 g/ha [24]: 15%; inhibition at 280.212 g/ha [25]: 8%; inhibition at 280.212 g/ha [26]: 90%; inhibition at 280.212 g/ha [27]: 10%; inhibition at 280.212 g/ha [28]: 10% |
| COCc1cc(-c2nn(C)c(C(F)(F)F)c2C)c(F)cc1Cl [Compound 11] | 75% | 95% | 60% | 25% | 10% | 100% | 15% | 0% | 20% | 0% | 50% | 60% | 15% | 15% | 10% | 15% | 10% | 0% | 25% | 25% | inhibition at 280.212 g/ha [23]: 5%; inhibition at 280.212 g/ha [24]: 5%; inhibition at 280.212 g/ha [25]: 20%; inhibition at 280.212 g/ha [26]: 50%; inhibition at 280.212 g/ha [27]: 6%; inhibition at 280.212 g/ha [28]: 5% |
| CC(C)OC(=O)c1cc(-c2nn(C)c(C(F)(F)F)c2C=O)c(F)cc1Cl [Compound 12, 2-Chloro-4-fluoro-5-[4-formyl-1-methyl-5-(trifluoromethyl)-1H-pyrazol-3-yl]benzoic acid, 1-methylethyl ester] | 65% | 80% | 60% | 85% | 60% | 98% | 15% | 5% | 60% | 80% | 95% | 100% | 50% | 98% | 100% | 15% | 90% | 35% | 90% | 99% | inhibition at 280.212 g/ha [23]: 100%; inhibition at 280.212 g/ha [24]: 65%; inhibition at 280.212 g/ha [25]: 85%; inhibition at 280.212 g/ha [26]: 99%; inhibition at 280.212 g/ha [27]: 30%; inhibition at 280.212 g/ha [28]: 85% |
| Cc1cc(-c2nn(C)c(C(F)(F)F)c2C)c(F)cc1Cl [Compound 33] | 45% | 55% | 40% | 30% | 10% | 50% | 10% | 0% | 5% | 0% | 10% | 15% | 5% | 0% | 10% | 0% | 5% | 0% | 15% | 10% | % plant inhibition [29]: 10%; % plant inhibition [8]: 5% and 0%; inhibition at 280.212 g/ha [23]: 5%; inhibition at 280.212 g/ha [24]: 0%; inhibition at 280.212 g/ha [25]: 15%; inhibition at 280.212 g/ha [26]: 10%; inhibition at 280.212 g/ha [27]: 5%; inhibition at 280.212 g/ha [28]: 5% |
